Legend:
[1] = test system: HO enzymatic activity; test: HO enzymatic activity (bilirubin generation in microsomes) of transplanted hearts; type: in vivo, mouse hearts transplanted into rats; conditions: 2 days after transplantation
Method: HO enzymatic activity was measured by bilirubin generation in heart and liver microsomes. Animals were sacrificed, and the liver and hearts were flushed with ice-cold PBS and frozen at −70° C. until used. Organs were homogenized in four volumes of sucrose (250 mM) Tris-HCl (10 mM/L) buffer (pH 7.4) on ice and centrifuged (28,000 RPM 3×, 20 min, 4° C.). The supernatant was centrifuged (105,000 RPM 3×, 60 min, 4° C.), and the microsomal pellet was resuspended in MgCl2 (2 mM)-potassium phosphate (100 mM) buffer (pH 7.4) and sonicated on ice. The samples (1 mg of protein) were added to the reaction mixture (400 îl) containing rat liver cytosol (2 mg of protein), hemin (50 îM), glucose-6-phosphate (2 mM), glucose-6-phosphate dehydrogenase (0.25 U), and NADPH (0.8 mM) for 60 min at 37° C. in the dark. The formed bilirubin was extracted with chloroform and, OD was measured at 464–530 nm (extinction coefficient, 40 mM/cm for bilirubin). Enzyme activity is expressed as picomoles of bilirubin formed per milligram of protein per 60 min (pmol/mg/h). The protein concentration was determined by the bicinchoninic acid protein assay (Pierce, Georgetown). The background was ˜5 pmol/mg/h. […] Carboxyhemoglobin was measured 2 days after transplantation by using a Corning 865 blood gas analyzer (Clinical Chemistry, Massachusetts General Hospital, Boston, Mass.).

[2] = test system: Brown Norway aortas transplanted into Lewis rats; test: Aortic transplant model (transplant-associated arteriosclerosis); type: in vivo, rat; conditions: allogeneic recipients exposed to CO 250 ppm for 56 days
Method: Aortic transplantation was carried out done as described elsewhere (Plissonnier et al., Transplantation 60:414–424, 1995). […] After additional left thoracotomy, three or four pairs of the inter-costal arteries were ligated using 7-0 nylon suture (Keisei Medical Industrial Co., LTD, Tokyo, Japan), and 2 cm of the descending aorta was harvested. The graft was inserted between the renal arteries and the aortic bifurcation by standard microsurgery technique using 9-0 Nylon sutures (Ethilon™, Ethicon, Inc, Somerville, N.J.). The native abdominal aorta was left after both edges were ligated.
CO at a concentration of 1% (10,000 parts per million; ppm) in compressed air was mixed with balanced air (21% oxygen) as described previously (Otterbein et al., Am J Physiol 276(4 Pt 1):L688–L694, 1999). For the transplant model, graft donors were placed in the CO chamber two days before transplantation. Recipients were placed in the chamber immediately following transplantation and kept there 56 days. CO concentration was maintained at 250 ppm at all times.
Adult male (250–350 g) Brown Norway rats (RT1 were used as aortic graft donors and adult male (250–350 g) Lewis rats (RT1) as recipients (Charles River Lab. Wilmington, Mass.). Male C57BL/6, p21^−/− and p53^−/− null mice were purchased from Jackson Laboratory (Bar Harbor, Me.). The MKK3^(−/−) null mice were generated as previously described (Lu et al., EMBO. J. 18:1845–1857, 1999). Mice were allowed to acclimate for one week with rodent chow and water ad libitum.
Brown Norway aortas were transplanted into Brown Norway rats (syngeneic), untreated Lewis rats (allogeneic), or Lewis rats exposed to carbon monoxide (250 ppm; allogeneic with carbon monoxide). Samples were harvested 56 days after transplantation and stained by a modified elastic tissue-masson trichrome, or by eosin hematoxylin. Brown Norway aortic segments transplanted into Lewis rats developed arteriosclerotic lesions that are consistent with those associated with chronic graft rejection (data not shown). […]

[3] = test system: mouse 2F–2B endothelial cells; test: Cellular ELISA for anti-graft Abs and rat C3 binding to mouse endothelial cells; type: in vivo; conditions: rats with mouse cardiac graft under CVF plus CsA
Method: Serum levels of rat anti-mouse Abs were measured by cellular-based indirect ELISA. The mouse 2F–2B endothelial cell line (CRL-2168; American Type Culture Collection (ATCC), Manassas, Va.) was used as an antigenic target. Briefly, 2F–2B cells were cultured in DMEM (Life Technologies, Rockville, Md.), 10% FCS, 100 U/ml penicillin, and 100 îg/ml streptomycin (Life Technologies). Glutaraldehyde-fixed 2F–2B cells were incubated (1 h, 37° C.) in the presence of rat serum serially diluted in PBS 0.05% Tween 20 (Sigma) and rat anti-mouse Abs were detected by using mouse anti-rat IgM (MARM-4), IgG1 (MARG1-2), IgG2a (Marg2a-1), IgG2b (MARGb-8), or IgG2c (MARG2c-5) (kind gifts from Prof. H. Bazin, University of Louvain, Brussels, Belgium). Mouse anti-rat Abs were detected by using HRP-labeled goat anti-mouse Fab′ depleted of anti-rat Ig cross reactivity (0.1 îg/ml, 1 h, room temperature; Pierce, Rockford, Ill.). […] Absorbance was measured at Î=490 nm. The relative amount of circulating anti-graft Abs in the serum was expressed as OD (Î=490) taken from one serial dilution in the linear range of the assay (1:32–1:1024).
Binding of rat C3 to mouse endothelial cells was measured by a modified cellular ELISA with mouse 2F–2B endothelial cells as antigenic targets (Miyatake et al, J. Immunol. 160:4114, 1998). Briefly, nonfixed 2F–2B endothelial cells were incubated in the presence of rat serum serially diluted in GVB^++ buffer (1 h, 37° C.). Cells were fixed in PBS, 0.05% glutaraldehyde, and rat C3 deposition was detected by using a mouse anti-rat C3 mAb (Serotec).

## [C-]#[O+] [CO, carbon monoxide]
[1]; rats treated with SnPPIX and exposed to CO
  total HO enzymatic activity in transplanted mouse hearts: 43.6 ± 7.57 pmol/mg/h
[2]
  accumulation of leukocytes into the adventitia: inhibited
  intimal hyperplasia in aortic grafts: inhibited
  loss of medial SMC: no significant effect on loss of medial SMC

## C=CC1=C(C)c2cc3[n-]c(cc4[n-]c(cc5nc(cc1n2)C(C)=C5C=C)c(C)c4CCC(=O)O)c(CCC(=O)O)c3C.[Fe+2] [FePPIX, iron protoporphyrin]
[3]
  influence on C3 deposition on mouse endothelial cells: Neither SnPPIX or FePPIX treatment influenced C3 deposition
  influence on anti-mouse Ab (IgM) response: did not influence this Ab response

## C=Cc1c2[n-]c(c1C)/C=c1\[n-]/c(c(C)c1C=C)=C\c1[n-]c(c(CCC(=O)O)c1C)C=c1[n-]/c(c(C)c1CCC(=O)O)=C\2.[Sn+4] [SnPPIX, tin protoporphyrin IX]
[1]
  total HO enzymatic activity in transplanted mouse hearts: 32.37 ± 7.23 pmol/mg/h
[3]
  influence on C3 deposition on mouse endothelial cells: Neither SnPPIX or FePPIX treatment influenced C3 deposition
  influence on anti-mouse Ab (IgM) response: did not influence this Ab response

From patent US7238469B2, “Carbon monoxide improves outcomes in tissue and organ transplants and suppresses apoptosis” (priority 2001, dated 2007)
